Test results reported in patent US20150057305A1, “PHARMACEUTICAL COMPOSITION” (SHANGHAI HOTMED SCIENCES CO., LTD., priority 2012, published 2015).

How the values were obtained:
[1] = Distribution coefficient (n-octanol-water) shake flask method GB/T 21853-2008; assay type: physicochemical; conditions: in water
[2] = Solubility in water; assay type: physicochemical
[3] = cited from earlier work
[4] = dog, in vivo; cited from earlier work

| Lg Po/w [1] | solubility in water [2] | SMILES | stability in human plasma [3] | oral bioavailability [4] |
| --- | --- | --- | --- | --- |
| 7.31 | almost insoluble in water | CC[C@@]1(OC(=O)OCC(C)C)C(=O)OCc2c1cc1n(c2=O)Cc2cc3c([N+](=O)[O-])cccc3nc2-1 [the compound of formula I] | good stability | – |
| – | – | CC[C@@]1(O)C(=O)OCc2c1cc1n(c2=O)Cc2cc3c([N+](=O)[O-])cccc3nc2-1 [Example 9-NC, 9-nitro-camptothecin] | – | less than 6% |
